This data set in a line: Water-solubility by HPLC. It counts as physicochemical. Particulars: deionised water, room temperature. On the procedure: HPLC was carried out on a Waters 484 System using Novapack C18 reverse phase column. Flow rate: 1 mL/min. Detection: UV 254 nm. […] The samples were centrifuged at 14.000 rpm in an Eppendorf micro-centrifuge for 1.5 min at room temperature. An aliquot of the clear supernatant was removed and diluted to a concentration within the range of a five-point standard curve. Water-solubility was calculated from each peak area of the above solution by HPLC compared with the sample dissolved in acetonitrile, the concentration of which is already known.

Here are results for one compound from patent US8912163B2, “Compositions for the treatment or prophylaxis of viral infections” (Katholieke Universiteit Leuven, priority 2007, dated 2014).

The term solubility denotes the dissolved amount per volume that the medium holds.

Values after ≈ are worked out from the molar mass of the structure shown.

Compound `CCCCCc1ccc(-c2cc3cn([C@H]4CC(O)[C@@H](CO)O4)c(=O)nc3o2)cc1` (some centres unmarked) [Compound 1, reference compound] gave a Solubility in water (overnight, means of three determinations) of 22 ± 7 µg/mL (≈ 55.2 µM). Also, the solubility (thermodynamic from solid, read-out: water-solubility) turned out to be 22 µg/mL (≈ 55.2 µM).
